Earlier results as cited in patent US20190133115A1, “PESTICIDAL SOLUBLE MICRO-EMULSION CONCENTRATE SEED TREATMENT FORMULATIONS” (priority 2017, published 2019).

Settings: in alcohols, e.g., ethanol, acetone, and toluene

COCC(=O)N(c1c(C)cccc1C)C(C)C(=O)OC (racemic) [Metalaxyl, methyl N-(methoxyacetyl)-N-(2,6-xylyl)-DL-alanate]
solubility: soluble
